Measured values reported in the supplement of paper PMC10307832.

Legend:
Experiment in all cases: relative viability (nuclei count vs DMSO), 5 days (fraction); higher = more cells survive
[1] = compound: CC(=O)c1c(C)c2cnc(Nc3ccc(N4CCNCC4)cn3)nc2n(C2CCCC2)c1=O [Palbociclib]
Summary of the method: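 After an overnight hold at 37 °C, lung cancer cell lines in 1536-well plates were pinned with five library-drug doses (not always all listed), each √10 from the next, on vehicle-anchored plates. The cells stayed 5 days without fresh medium, then a one-step fix, permeabilisation and Hoechst stain preceded 4× imaging and MetaXpress nuclear counts. A plate passed only with control CV under 25% and at least one doubling. Viability is the median, over plates, of treated-well nuclei relative to vehicle-well nuclei.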

[2] = compound: CC(=O)c1c(C)c2cnc(Nc3ccc(N4CCNCC4)cn3)nc2n(C2CCCC2)c1=O [Palbociclib] + O=C(c1cc(Cc2n[nH]c(=O)c3ccccc23)ccc1F)N1CCN(C(=O)C2CC2)CC1 [Olaparib] (partner 8 µM)
Summary of the method: (§1)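 Cells from lung cancer lines were seeded into 1536-well plates and, one day later, dosed by pin tool. Treatments were either a single drug or a fixed dose of an anchor drug with five library-drug doses (not always all listed) in √10 steps. After 5 days, nuclei were stained in a one-step fixation (final 0.05% Triton X-100, 1% formaldehyde, 1 ug/ml Hoechst) and counted on 4× images, and relative viability is the treated-to-vehicle nuclei ratio, as the median of duplicate plates.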

[3] = compound: CC(=O)c1c(C)c2cnc(Nc3ccc(N4CCNCC4)cn3)nc2n(C2CCCC2)c1=O [Palbociclib] + Cc1nc(NC(=O)N2CCC[C@H]2C(N)=O)sc1-c1ccnc(C(C)(C)C(F)(F)F)c1 [Alpelisib] (partner 2 µM)
Summary of the method: as §1

[4] = compound: CC(=O)c1c(C)c2cnc(Nc3ccc(N4CCNCC4)cn3)nc2n(C2CCCC2)c1=O [Palbociclib] + C[C@]1(O)C[C@@H](c2nc(-c3ccc4ccc(-c5ccccc5)nc4c3)c3c(N)nccn32)C1 [Linsitinib] (partner 1 µM)
Summary of the method: as §1

[5] = compound: CC(=O)c1c(C)c2cnc(Nc3ccc(N4CCNCC4)cn3)nc2n(C2CCCC2)c1=O [Palbociclib] + C[C@@H](Oc1cc(-c2cnn(C3CCNCC3)c2)cnc1N)c1c(Cl)ccc(F)c1Cl [Crizotinib] (partner 1 µM)
Summary of the method: as §1

[6] = compound: CC(=O)c1c(C)c2cnc(Nc3ccc(N4CCNCC4)cn3)nc2n(C2CCCC2)c1=O [Palbociclib] + CS(=O)(=O)N1CCN(Cc2cc3nc(-c4cccc5[nH]ncc45)nc(N4CCOCC4)c3s2)CC1 [Pictilisib] (partner 1 µM)
Summary of the method: as §1

[7] = compound: CC(=O)c1c(C)c2cnc(Nc3ccc(N4CCNCC4)cn3)nc2n(C2CCCC2)c1=O [Palbociclib] + CS(=O)(=O)CCNCc1ccc(-c2ccc3ncnc(Nc4ccc(OCc5cccc(F)c5)c(Cl)c4)c3c2)o1 [Lapatinib] (partner 2 µM)
Summary of the method: as §1

[8] = compound: CC(=O)c1c(C)c2cnc(Nc3ccc(N4CCNCC4)cn3)nc2n(C2CCCC2)c1=O [Palbociclib] + CC(C)C[C@H](NC(=O)[C@H](Cc1ccccc1)NC(=O)c1cnccn1)B(O)O [Bortezomib] (partner 0.002 µM)
Summary of the method: as §1

[9] = compound: CC(=O)c1c(C)c2cnc(Nc3ccc(N4CCNCC4)cn3)nc2n(C2CCCC2)c1=O [Palbociclib] + COc1cc2c(Oc3ccc(NC(=O)C4(C(=O)Nc5ccc(F)cc5)CC4)cc3F)ccnc2cc1OCCCN1CCOCC1 [Foretinib] (partner 0.25 µM)
Summary of the method: as §1

[10] = compound: CC(=O)c1c(C)c2cnc(Nc3ccc(N4CCNCC4)cn3)nc2n(C2CCCC2)c1=O [Palbociclib] + CC1(C)CCC(c2ccc(Cl)cc2)=C(CN2CCN(c3ccc(C(=O)NS(=O)(=O)c4ccc(N[C@H](CCN5CCOCC5)CSc5ccccc5)c(S(=O)(=O)C(F)(F)F)c4)cc3)CC2)C1 [Navitoclax] (partner 0.5 µM)
Summary of the method: as §1

## EBC-1
[1]; 0.01 µM
  relative viability: 1.02
[1]; 0.03162 µM
  relative viability: 0.809
[1]; 0.1 µM
  relative viability: 0.662
[1]; 0.3162 µM
  relative viability: 0.543
[1]; 1 µM
  relative viability: 0.248
[2]; first compound 0.01 µM
  relative viability: 0.696
[2]; first compound 0.03162 µM
  relative viability: 0.647
[2]; first compound 0.1 µM
  relative viability: 0.452
[2]; first compound 0.3162 µM
  relative viability: 0.514
[2]; first compound 1 µM
  relative viability: 0.241
[3]; first compound 0.01 µM
  relative viability: 0.786
[3]; first compound 0.03162 µM
  relative viability: 0.774
[3]; first compound 0.1 µM
  relative viability: 0.573
[3]; first compound 0.3162 µM
  relative viability: 0.409
[3]; first compound 1 µM
  relative viability: 0.184
[4]; first compound 0.01 µM
  relative viability: 0.923
[4]; first compound 0.03162 µM
  relative viability: 0.843
[4]; first compound 0.1 µM
  relative viability: 0.647
[4]; first compound 0.3162 µM
  relative viability: 0.554
[4]; first compound 1 µM
  relative viability: 0.293
[5]; first compound 0.01 µM
  relative viability: 0.193
[5]; first compound 0.03162 µM
  relative viability: 0.165
[5]; first compound 0.1 µM
  relative viability: 0.195
[5]; first compound 0.3162 µM
  relative viability: 0.17
[5]; first compound 1 µM
  relative viability: 0.18
[6]; first compound 0.01 µM
  relative viability: 0.366
[6]; first compound 0.03162 µM
  relative viability: 0.241
[6]; first compound 0.1 µM
  relative viability: 0.202
[6]; first compound 0.3162 µM
  relative viability: 0.178
[6]; first compound 1 µM
  relative viability: 0.183
[7]; first compound 0.01 µM
  relative viability: 0.221
[7]; first compound 0.03162 µM
  relative viability: 0.215
[7]; first compound 0.1 µM
  relative viability: 0.178
[7]; first compound 0.3162 µM
  relative viability: 0.191
[7]; first compound 1 µM
  relative viability: 0.192
[8]; first compound 0.01 µM
  relative viability: 0.468
[8]; first compound 0.03162 µM
  relative viability: 0.445
[8]; first compound 0.1 µM
  relative viability: 0.353
[8]; first compound 0.3162 µM
  relative viability: 0.281
[8]; first compound 1 µM
  relative viability: 0.193
[9]; first compound 0.01 µM
  relative viability: 0.113
[9]; first compound 0.03162 µM
  relative viability: 0.0957
[9]; first compound 0.1 µM
  relative viability: 0.0957
[9]; first compound 0.3162 µM
  relative viability: 0.0852
[9]; first compound 1 µM
  relative viability: 0.0884
[10]; first compound 0.01 µM
  relative viability: 0.363
[10]; first compound 0.03162 µM
  relative viability: 0.367
[10]; first compound 0.1 µM
  relative viability: 0.283
[10]; first compound 0.3162 µM
  relative viability: 0.215
[10]; first compound 1 µM
  relative viability: 0.195

## Calu-6
[1]; 0.01 µM
  relative viability: 1.06
[1]; 0.03162 µM
  relative viability: 0.919
[1]; 0.1 µM
  relative viability: 0.833
[1]; 0.3162 µM
  relative viability: 0.79
[1]; 1 µM
  relative viability: 0.588
[2]; first compound 0.01 µM
  relative viability: 0.612
[2]; first compound 0.03162 µM
  relative viability: 0.549
[2]; first compound 0.1 µM
  relative viability: 0.511
[2]; first compound 0.3162 µM
  relative viability: 0.528
[2]; first compound 1 µM
  relative viability: 0.417
[3]; first compound 0.01 µM
  relative viability: 0.817
[3]; first compound 0.03162 µM
  relative viability: 0.864
[3]; first compound 0.1 µM
  relative viability: 0.751
[3]; first compound 0.3162 µM
  relative viability: 0.695
[3]; first compound 1 µM
  relative viability: 0.465
[4]; first compound 0.01 µM
  relative viability: 0.982
[4]; first compound 0.03162 µM
  relative viability: 0.921
[4]; first compound 0.1 µM
  relative viability: 0.784
[4]; first compound 0.3162 µM
  relative viability: 0.746
[4]; first compound 1 µM
  relative viability: 0.578
[5]; first compound 0.01 µM
  relative viability: 0.867
[5]; first compound 0.03162 µM
  relative viability: 0.68
[5]; first compound 0.1 µM
  relative viability: 0.662
[5]; first compound 0.3162 µM
  relative viability: 0.551
[5]; first compound 1 µM
  relative viability: 0.451
[6]; first compound 0.01 µM
  relative viability: 0.908
[6]; first compound 0.03162 µM
  relative viability: 0.779
[6]; first compound 0.1 µM
  relative viability: 0.698
[6]; first compound 0.3162 µM
  relative viability: 0.508
[6]; first compound 1 µM
  relative viability: 0.371
[7]; first compound 0.01 µM
  relative viability: 1.07
[7]; first compound 0.03162 µM
  relative viability: 0.897
[7]; first compound 0.1 µM
  relative viability: 0.855
[7]; first compound 0.3162 µM
  relative viability: 0.709
[7]; first compound 1 µM
  relative viability: 0.53
[8]; first compound 0.01 µM
  relative viability: 0.926
[8]; first compound 0.03162 µM
  relative viability: 0.95
[8]; first compound 0.1 µM
  relative viability: 0.727
[8]; first compound 0.3162 µM
  relative viability: 0.89
[8]; first compound 1 µM
  relative viability: 0.412
[9]; first compound 0.01 µM
  relative viability: 0.879
[9]; first compound 0.03162 µM
  relative viability: 0.808
[9]; first compound 0.1 µM
  relative viability: 0.714
[9]; first compound 0.3162 µM
  relative viability: 0.672
[9]; first compound 1 µM
  relative viability: 0.463
[10]; first compound 0.01 µM
  relative viability: 0.863
[10]; first compound 0.03162 µM
  relative viability: 0.792
[10]; first compound 0.1 µM
  relative viability: 0.683
[10]; first compound 0.3162 µM
  relative viability: 0.549
[10]; first compound 1 µM
  relative viability: 0.479
